From patent US6632602B1, “Plant sugar sensors and uses thereof” (The General Hospital Corporation, priority 1996, dated 2003) come the findings set out here.

Data set [1] has as its system Arabidopsis seedlings. Description: Sugar sensitivity bioassay of light-grown seedlings on 6% glucose or 0.8 mM 2-dGlc plates. It counts as in vivo. The following applies: control plants, constant light; 6% glucose or low concentration (0.8 mM) 2-dGlc. The source says:
To test the hypothesis that AtHXKs act as sugar sensors in intact plants, transgenic plant models were established by introducing sense and antisense genes to alter AtHXK levels. Wild-type (Bensheim) Arabidopsis plants were transformed with binary vectors carrying gene fusions with the CaMV35S promoter and sense AtHXK1 (sense-AtHXK1), sense AtHXK2 (sense-AtHXK2), antisense AtHXK1 (anti-AtHXK1), or antisense AtHXK2 (anti-AtHXK2) using a standard Agrobacterium-mediated root transformation protocol (Czako et al., Mol. Gen. Genet. 235, 33 (1992)). The presence of a transgene was determined by NPTII expression and resultant kanamycin resistance, and by DNA blot analysis. Several transgenic lines of the T3 generation homozygous for the sense or antisense transgenes were selected for further analyses.
Sugar sensitivity of transgenic plants was examined by performing bioassays using 6% glucose or 0.8 mM 2-deoxyglucose (2-dGlc), a nonmetabolizable glucose analog. […]
The scored phenotypes shown in Table 1 were determined based on the examination of light-grown, 7-day-old seedlings which were germinated on 1/2 MS plates containing either 6% glucose or 0.8 mM of 2-dGlc. Sugar insensitive (Ins), hypersensitive (Hyp), and ambiguous (A) phenotypes were scored and tabulated.

Data set [2] deals with Arabidopsis seedlings. Description: Osmotic control experiments on 6% mannitol or 6% 3-MeGlc plates. The following applies: plated on 6% of the substance. It counts as in vivo. From the text:
To rule out the possibility that the difference in sugar sensing between transgenic and control plants was due to an osmotic effect, mannitol and 3-O-methylglucose (3-MeGlc) were used in control experiments.

Data set [3] deals with yeast hxk1/hxk2 double mutant (DBY2219). The data set can be described thus: Functional complementation of yeast hxk1/hxk2 double mutant on fructose. It counts as cell-based, Saccharomyces cerevisiae. The following applies: for Complementation of yeast double mutant, growth on fructose as sole carbon source: cDNA transformed into DBY2219. The source says:
To elucidate the role of HXK as a sugar sensor, the Arabidopsis HXK genes were cloned by functional complementation using a yeast Saccharomyces cerevisiae hxk1/hxk2 double mutant (designated DBY2219), a strain which lacked HXK activity (Ma and Botstein, Mol. Cell. Biol. 6, 4046 (1986)). Using this approach, we identified two cDNAs, designated AtHXK1 (FIG. 1F; SEQ ID NO: 3, GenBank accession no. U28214) and AtHXK2 (FIG. 1G; SEQ ID NO: 4, GenBank accession no. U28215). These cDNAs, which were 2.0 and 1.9 kb in length respectively, were both found reproducibly to complement the yeast double mutant and to allow its growth on a selection plate containing fructose as the sole carbon source. […] In contrast, mutants transformed with the plasmid vector pFL61 alone were incapable of growth on the same selection media (FIG. 1A) (Minet et al., Plant J. 2, 417 (1992)).

For data set [4] the test system is unchanged. The data set can be described thus: Yeast glucose repression assay on 2-dGlc/raffinose plate. It counts as cell-based, Saccharomyces cerevisiae. The following applies: 2% raffinose, 2-deoxyglucose (0.02%). From the text:
To confirm this hypothesis, we sought to increase the expression of a heterologous HXK that would provide excess catalytic activity for sugar metabolism, but no regulatory function. The yeast HXK2 (YHXK2) has been proposed to have catalytic and regulatory functions, and appeared to be a good candidate for this experiment (Entian, Mol. Gen. Genet. 178, 633 (1980); Entian and Frshlich, J. Bacteriol. 158, 29 (1984); Entian et al., Mol. Cell. Biol. 5, 3035 (1985)). We first determined whether the putative regulatory functions of the YHXK2 and AtHXK were interchangeable by examining the effect of increasing the expression of AtHXK on glucose repression in a yeast hxk1/hxk2 double mutant (DBY2219). The assay was based on the YHXK2-mediated growth inhibition (i.e., glucose repression) of wild-type yeast cells on a 2-dGlc/raffinose plate. The glucose repression assay was performed using a YP plate with 2% raffinose as the carbon source in the presence of 2-deoxyglucose (0.02%) as described by Ma et al. (Mol. Cell. Biol. 9, 5643 (1989)). The glucose analog, 2-dGlc, mimics glucose by inducing strong repression of the invertase gene (SUC2), but is itself unavailable for use as a carbon source.

For the compound `O=CC[C@@H](O)[C@H](O)[C@H](O)CO` [2-dGlc, 2-deoxyglucose], in data set [1], the “Effect of sugar on control (wild-type) seedling development” value is given as “greening of cotyledons was found to be inhibited”.

As to `CO[C@@H]([C@H](O)[C@H](O)CO)[C@@H](O)C=O` [3-MeGlc, 3-O-methylglucose], the “Difference between control and transgenic plants” value in data set [2] was “No apparent difference”.

In the case of `OC[C@@H](O)[C@@H](O)[C@H](O)[C@H](O)CO` [mannitol], the “Difference between control and transgenic plants” value in data set [2] was “No apparent difference”.

For “AtHXK1: Arabidopsis hexokinase cDNA, SEQ ID NO: 3, GenBank accession no. U28214”, the “Complementation of yeast double mutant, growth on fructose as sole carbon source” value in data set [3] is reported as “complement”. Besides, the “Catalytic activity in yeast transformation experiment” value in data set [3] (data not shown) is reported as “higher catalytic activity than AtHXK2”. In data set [4], the “Glucose repression in hxk1/hxk2 strain” value is recorded as “did not restore glucose repression”.

Turning to “AtHXK2: Arabidopsis hexokinase cDNA, SEQ ID NO: 4, GenBank accession no. U28215”, the “Complementation of yeast double mutant, growth on fructose as sole carbon source” value in data set [3] was “complement”. Moreover, the “Glucose repression in hxk1/hxk2 strain” value in data set [4] is on record as “did not restore glucose repression”.
